# Laboratory results from ChEMBL document CHEMBL4507301 (2021).
# Experiments:
# [1] = molecular target: Tyrosine-protein kinase JAK1 (Homo sapiens) (UniProt P23458); settings: Compound concentration 1000.0 nM
# [2] = molecular target: Serine/threonine-protein kinase pim-2 (Homo sapiens) (UniProt Q9P1W9); settings: Compound concentration 1000.0 nM
# [3] = molecular target: Alpha-1A adrenergic receptor (Homo sapiens) (UniProt P35348); settings: Compound concentration 10.0 uM
# [4] = molecular target: Calcium/calmodulin-dependent protein kinase type II subunit alpha (Homo sapiens) (UniProt Q9UQM7); settings: Compound concentration 1000.0 nM
# [5] = molecular target: T1, Alpha-1A adrenergic receptor (Homo sapiens, UniProt P35348); assay: GPCRScan assay: inhibition of Alpha1A; set-up: radioligand conc. used [nm] 0.2 - 1.0, parental cells stable HEK
# [6] = molecular target: Serine/threonine-protein kinase 10 (Homo sapiens) (UniProt O94804); settings: Compound concentration 1000.0 nM
# [7] = molecular target: Mitogen-activated protein kinase kinase kinase 20 (Homo sapiens) (UniProt Q9NYL2); settings: Compound concentration 1000.0 nM
# [8] = molecular target: Ankyrin repeat and protein kinase domain-containing protein 1 (Homo sapiens) (UniProt Q8NFD2); settings: Compound concentration 1000.0 nM
# [9] = molecular target: D(2) dopamine receptor (Homo sapiens) (UniProt P14416); settings: Compound concentration 10.0 uM
# [10] = molecular target: Serine/threonine-protein kinase D2 (Homo sapiens) (UniProt Q9BZL6); settings: Compound concentration 1000.0 nM
# [11] = molecular target: Cyclin-dependent kinase 7 (Homo sapiens) (UniProt P50613); settings: Compound concentration 1000.0 nM
# [12] = molecular target: Serine/threonine-protein kinase Nek1 (Homo sapiens) (UniProt Q96PY6); settings: Compound concentration 1000.0 nM
# [13] = molecular target: Serine/threonine-protein kinase mTOR (Homo sapiens) (UniProt P42345); settings: Compound concentration 1000.0 nM
# [14] = molecular target: Serine/threonine-protein kinase RIO3 (Homo sapiens) (UniProt O14730); settings: Compound concentration 1000.0 nM
# [15] = tested on: Epidermal growth factor receptor (Homo sapiens), P00533 [UNDEFINED MUTATION]; settings: Compound concentration 1000.0 nM
# [16] = molecular target: Serine/threonine-protein kinase pim-1 (Homo sapiens) (UniProt P11309); settings: Compound concentration 1000.0 nM
# [17] = tested on: Proto-oncogene tyrosine-protein kinase receptor Ret (Homo sapiens), P07949 [M918T]; settings: Compound concentration 1000.0 nM
# [18] = molecular target: Serine/threonine-protein kinase LATS1 (Homo sapiens) (UniProt O95835); settings: Compound concentration 1000.0 nM
# [19] = molecular target: Alpha-1D adrenergic receptor (Homo sapiens, UniProt P25100); assay: GPCRScan assay: inhibition of Alpha1D; set-up: radioligand conc. used [nm] 0.3 – 1.0, parental cells stable
# [20] = molecular target: Epithelial discoidin domain-containing receptor 1 (Homo sapiens) (UniProt Q08345); settings: Compound concentration 1000.0 nM
# [21] = molecular target: Tyrosine-protein kinase Srms (Homo sapiens) (UniProt Q9H3Y6); settings: Compound concentration 1000.0 nM
# [22] = molecular target: Ephrin type-B receptor 6 (Homo sapiens) (UniProt O15197); settings: Compound concentration 1000.0 nM
# [23] = molecular target: Alpha-1B adrenergic receptor (Homo sapiens, UniProt P35368); assay: Binding assay (ADRA1B)
# [24] = molecular target: Myotonin-protein kinase (Homo sapiens) (UniProt Q09013); settings: Compound concentration 1000.0 nM
# [25] = molecular target: Beta-3 adrenergic receptor (Homo sapiens) (UniProt P13945); settings: Compound concentration 10.0 uM
# [26] = molecular target: Macrophage colony-stimulating factor 1 receptor (Homo sapiens) (UniProt P07333); settings: Compound concentration 1000.0 nM
# [27] = tested on: ALK tyrosine kinase receptor (Homo sapiens), Q9UM73 [L1196M]; settings: Compound concentration 1000.0 nM
# [28] = molecular target: T1, Alpha-1A adrenergic receptor
# [29] = molecular target: Serine/threonine-protein kinase BRSK2 (Homo sapiens) (UniProt Q8IWQ3); settings: Compound concentration 1000.0 nM
# [30] = molecular target: Serine/threonine-protein kinase WNK3 (Homo sapiens) (UniProt Q9BYP7); settings: Compound concentration 1000.0 nM
# [31] = molecular target: Vascular endothelial growth factor receptor 3 (Homo sapiens) (UniProt P35916); settings: Compound concentration 1000.0 nM
# [32] = molecular target: Beta-3 adrenergic receptor (Homo sapiens) (UniProt P13945); assay: beta3 Eurofins-Panlabs ligand profiling; settings: Compound concentration 10.0 uM
# [33] = molecular target: Alpha-1D adrenergic receptor (Rattus norvegicus) (UniProt P23944); assay: Inhibition of phenylephrine-induced contractions in bladder strips from rats with bladder outlet obstruction; format: tissue-based; settings: Urinary bladder
# [34] = molecular target: T2, Alpha-2C adrenergic receptor (Homo sapiens) (UniProt P18825); assay: alpha2C Eurofins-Panlabs ligand profiling; settings: Compound concentration 10.0 uM
# T2 sequence (whole entry): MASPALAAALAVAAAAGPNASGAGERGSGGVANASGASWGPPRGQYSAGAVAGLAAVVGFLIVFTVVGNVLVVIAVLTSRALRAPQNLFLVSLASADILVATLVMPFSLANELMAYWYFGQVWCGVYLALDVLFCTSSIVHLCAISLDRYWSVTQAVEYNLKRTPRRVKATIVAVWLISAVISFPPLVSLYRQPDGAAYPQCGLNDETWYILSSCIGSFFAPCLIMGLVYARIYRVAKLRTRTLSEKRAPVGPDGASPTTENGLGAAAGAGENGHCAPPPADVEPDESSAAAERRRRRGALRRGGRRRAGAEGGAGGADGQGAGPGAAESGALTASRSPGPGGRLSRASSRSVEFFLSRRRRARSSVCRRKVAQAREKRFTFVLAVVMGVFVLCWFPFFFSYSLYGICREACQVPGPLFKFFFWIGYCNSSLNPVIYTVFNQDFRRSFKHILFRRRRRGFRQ
# [35] = molecular target: 5-hydroxytryptamine receptor 3A (Homo sapiens) (UniProt P46098); settings: Compound concentration 10.0 uM
# [36] = molecular target: Alpha-2B adrenergic receptor (Homo sapiens, UniProt P18089); assay: alpha2B Eurofins-Panlabs ligand profiling
# [37] = molecular target: Serotonin 1 (5-HT1) receptor (Homo sapiens) (UniProt P30939+P28222+P08908+P28221+P28566); assay: 5-HT1 Eurofins-Panlabs ligand profiling; format: protein assay; settings: Compound concentration 10.0 uM
# [38] = molecular target: Beta-1 adrenergic receptor (Homo sapiens) (UniProt P08588); assay: beta1 Eurofins-Panlabs ligand profiling; settings: Compound concentration 10.0 uM
# [39] = molecular target: Beta-2 adrenergic receptor (Homo sapiens) (UniProt P07550); assay: beta2 Eurofins-Panlabs ligand profiling; settings: Compound concentration 10.0 uM
# [40] = molecular target: 5-hydroxytryptamine receptor 5A (Homo sapiens) (UniProt P47898); settings: Compound concentration 10.0 uM
# Sequence of Serine/threonine-protein kinase WNK3 (Homo sapiens) (Q9BYP7 whole entry): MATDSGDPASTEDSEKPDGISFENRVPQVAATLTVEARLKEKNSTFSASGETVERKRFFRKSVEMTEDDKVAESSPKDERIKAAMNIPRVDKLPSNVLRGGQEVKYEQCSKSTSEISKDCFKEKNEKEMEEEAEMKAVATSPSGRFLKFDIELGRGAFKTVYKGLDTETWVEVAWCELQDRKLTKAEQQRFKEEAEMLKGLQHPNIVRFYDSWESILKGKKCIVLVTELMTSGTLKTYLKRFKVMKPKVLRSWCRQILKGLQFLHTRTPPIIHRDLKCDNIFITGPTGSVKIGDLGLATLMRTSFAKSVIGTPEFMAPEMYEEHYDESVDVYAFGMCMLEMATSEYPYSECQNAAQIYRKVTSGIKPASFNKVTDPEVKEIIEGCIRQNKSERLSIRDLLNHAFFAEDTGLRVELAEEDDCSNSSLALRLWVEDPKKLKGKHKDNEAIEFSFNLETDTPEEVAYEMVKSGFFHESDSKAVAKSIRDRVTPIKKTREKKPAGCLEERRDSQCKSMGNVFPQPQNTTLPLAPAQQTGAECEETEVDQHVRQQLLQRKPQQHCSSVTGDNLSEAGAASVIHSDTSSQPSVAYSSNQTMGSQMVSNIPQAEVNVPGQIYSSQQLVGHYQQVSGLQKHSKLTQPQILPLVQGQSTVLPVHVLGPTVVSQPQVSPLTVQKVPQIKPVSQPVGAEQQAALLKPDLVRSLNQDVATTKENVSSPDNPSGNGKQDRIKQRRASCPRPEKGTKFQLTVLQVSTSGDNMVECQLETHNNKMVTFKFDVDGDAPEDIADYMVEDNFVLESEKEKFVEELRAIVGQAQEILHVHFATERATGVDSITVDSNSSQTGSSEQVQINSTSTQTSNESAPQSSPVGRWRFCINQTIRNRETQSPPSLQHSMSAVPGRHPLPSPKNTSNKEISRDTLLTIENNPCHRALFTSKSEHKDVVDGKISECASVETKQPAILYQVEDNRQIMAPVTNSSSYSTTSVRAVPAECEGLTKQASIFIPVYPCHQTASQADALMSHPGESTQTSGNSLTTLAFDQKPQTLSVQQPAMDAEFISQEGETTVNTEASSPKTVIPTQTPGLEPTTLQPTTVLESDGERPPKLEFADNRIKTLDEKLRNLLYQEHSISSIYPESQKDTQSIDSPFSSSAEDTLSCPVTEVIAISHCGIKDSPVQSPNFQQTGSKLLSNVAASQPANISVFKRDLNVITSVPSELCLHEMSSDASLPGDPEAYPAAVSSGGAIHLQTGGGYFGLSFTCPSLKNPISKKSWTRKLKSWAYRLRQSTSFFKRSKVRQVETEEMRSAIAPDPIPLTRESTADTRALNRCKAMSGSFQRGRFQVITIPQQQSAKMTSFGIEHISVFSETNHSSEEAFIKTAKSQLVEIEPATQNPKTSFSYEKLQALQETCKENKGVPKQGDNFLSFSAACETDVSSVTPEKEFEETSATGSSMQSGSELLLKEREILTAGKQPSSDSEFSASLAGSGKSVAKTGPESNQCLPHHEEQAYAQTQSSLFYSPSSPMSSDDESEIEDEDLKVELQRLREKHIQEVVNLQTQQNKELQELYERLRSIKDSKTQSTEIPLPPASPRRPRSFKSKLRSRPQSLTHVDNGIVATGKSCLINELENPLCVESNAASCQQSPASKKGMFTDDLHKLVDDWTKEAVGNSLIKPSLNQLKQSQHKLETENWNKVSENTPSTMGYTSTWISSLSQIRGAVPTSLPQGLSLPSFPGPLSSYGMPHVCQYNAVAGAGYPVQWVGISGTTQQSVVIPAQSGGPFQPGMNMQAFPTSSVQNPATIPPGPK
# Sequence of Serine/threonine-protein kinase D2 (Homo sapiens) (Q9BZL6 whole entry): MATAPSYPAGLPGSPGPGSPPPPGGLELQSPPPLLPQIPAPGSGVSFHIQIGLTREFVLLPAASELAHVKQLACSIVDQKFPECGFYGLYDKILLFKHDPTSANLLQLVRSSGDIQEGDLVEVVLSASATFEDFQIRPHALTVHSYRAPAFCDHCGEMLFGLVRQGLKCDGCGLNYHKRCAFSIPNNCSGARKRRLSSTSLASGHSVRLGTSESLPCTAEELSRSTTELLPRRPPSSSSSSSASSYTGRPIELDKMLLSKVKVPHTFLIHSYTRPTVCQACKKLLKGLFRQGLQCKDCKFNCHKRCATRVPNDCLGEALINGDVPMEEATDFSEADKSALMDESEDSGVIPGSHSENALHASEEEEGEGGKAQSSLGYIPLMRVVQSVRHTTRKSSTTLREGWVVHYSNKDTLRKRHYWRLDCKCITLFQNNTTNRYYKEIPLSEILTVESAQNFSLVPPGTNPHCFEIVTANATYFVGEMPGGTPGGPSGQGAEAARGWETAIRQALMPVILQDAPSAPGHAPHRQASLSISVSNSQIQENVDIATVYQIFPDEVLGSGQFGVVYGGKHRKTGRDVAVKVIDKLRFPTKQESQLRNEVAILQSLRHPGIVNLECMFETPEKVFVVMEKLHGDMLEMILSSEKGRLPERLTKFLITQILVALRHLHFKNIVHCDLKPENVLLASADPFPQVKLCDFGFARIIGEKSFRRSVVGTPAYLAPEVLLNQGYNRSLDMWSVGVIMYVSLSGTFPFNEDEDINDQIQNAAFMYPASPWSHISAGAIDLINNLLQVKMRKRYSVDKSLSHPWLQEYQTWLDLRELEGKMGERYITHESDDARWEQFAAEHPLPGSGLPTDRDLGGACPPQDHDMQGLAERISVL
# Sequence of Serine/threonine-protein kinase pim-2 (Homo sapiens) (Q9P1W9 whole entry, looked up): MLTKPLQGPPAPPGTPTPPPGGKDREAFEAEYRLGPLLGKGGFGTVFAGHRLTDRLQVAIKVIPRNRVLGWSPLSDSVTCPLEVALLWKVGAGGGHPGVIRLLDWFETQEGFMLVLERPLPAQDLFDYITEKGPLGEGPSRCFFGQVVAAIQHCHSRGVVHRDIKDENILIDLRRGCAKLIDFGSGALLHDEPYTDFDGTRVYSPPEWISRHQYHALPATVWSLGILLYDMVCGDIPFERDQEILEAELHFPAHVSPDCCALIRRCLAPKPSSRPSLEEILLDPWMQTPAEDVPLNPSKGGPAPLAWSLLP
# Sequence of Serine/threonine-protein kinase 10 (Homo sapiens) (O94804 whole entry, looked up): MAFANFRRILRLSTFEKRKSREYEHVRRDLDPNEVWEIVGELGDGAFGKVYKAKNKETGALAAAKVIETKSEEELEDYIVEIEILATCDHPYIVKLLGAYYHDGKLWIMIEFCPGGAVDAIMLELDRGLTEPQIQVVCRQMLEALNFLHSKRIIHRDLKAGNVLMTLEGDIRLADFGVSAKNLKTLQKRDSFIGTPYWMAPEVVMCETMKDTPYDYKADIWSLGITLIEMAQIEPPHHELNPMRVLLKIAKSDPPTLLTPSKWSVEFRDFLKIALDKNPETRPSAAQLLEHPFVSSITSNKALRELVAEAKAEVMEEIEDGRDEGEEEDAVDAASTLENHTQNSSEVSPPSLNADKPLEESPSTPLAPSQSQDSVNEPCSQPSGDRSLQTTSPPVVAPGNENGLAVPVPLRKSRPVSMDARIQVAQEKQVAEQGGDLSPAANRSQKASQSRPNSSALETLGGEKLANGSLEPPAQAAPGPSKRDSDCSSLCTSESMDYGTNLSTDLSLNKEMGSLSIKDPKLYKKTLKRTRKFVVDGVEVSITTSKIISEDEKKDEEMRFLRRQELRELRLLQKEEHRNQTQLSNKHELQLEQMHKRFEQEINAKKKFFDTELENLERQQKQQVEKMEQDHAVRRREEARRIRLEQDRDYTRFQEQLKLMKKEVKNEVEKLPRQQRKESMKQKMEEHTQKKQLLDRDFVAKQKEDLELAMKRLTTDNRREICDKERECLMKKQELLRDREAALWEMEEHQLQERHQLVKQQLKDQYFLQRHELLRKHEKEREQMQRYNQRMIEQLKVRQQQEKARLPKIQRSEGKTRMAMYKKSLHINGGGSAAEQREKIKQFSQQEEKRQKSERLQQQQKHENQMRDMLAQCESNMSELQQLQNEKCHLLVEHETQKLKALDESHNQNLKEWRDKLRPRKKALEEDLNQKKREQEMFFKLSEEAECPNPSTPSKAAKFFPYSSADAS
# Sequence of Mitogen-activated protein kinase kinase kinase 20 (Homo sapiens) (Q9NYL2 2-800 limits assumed): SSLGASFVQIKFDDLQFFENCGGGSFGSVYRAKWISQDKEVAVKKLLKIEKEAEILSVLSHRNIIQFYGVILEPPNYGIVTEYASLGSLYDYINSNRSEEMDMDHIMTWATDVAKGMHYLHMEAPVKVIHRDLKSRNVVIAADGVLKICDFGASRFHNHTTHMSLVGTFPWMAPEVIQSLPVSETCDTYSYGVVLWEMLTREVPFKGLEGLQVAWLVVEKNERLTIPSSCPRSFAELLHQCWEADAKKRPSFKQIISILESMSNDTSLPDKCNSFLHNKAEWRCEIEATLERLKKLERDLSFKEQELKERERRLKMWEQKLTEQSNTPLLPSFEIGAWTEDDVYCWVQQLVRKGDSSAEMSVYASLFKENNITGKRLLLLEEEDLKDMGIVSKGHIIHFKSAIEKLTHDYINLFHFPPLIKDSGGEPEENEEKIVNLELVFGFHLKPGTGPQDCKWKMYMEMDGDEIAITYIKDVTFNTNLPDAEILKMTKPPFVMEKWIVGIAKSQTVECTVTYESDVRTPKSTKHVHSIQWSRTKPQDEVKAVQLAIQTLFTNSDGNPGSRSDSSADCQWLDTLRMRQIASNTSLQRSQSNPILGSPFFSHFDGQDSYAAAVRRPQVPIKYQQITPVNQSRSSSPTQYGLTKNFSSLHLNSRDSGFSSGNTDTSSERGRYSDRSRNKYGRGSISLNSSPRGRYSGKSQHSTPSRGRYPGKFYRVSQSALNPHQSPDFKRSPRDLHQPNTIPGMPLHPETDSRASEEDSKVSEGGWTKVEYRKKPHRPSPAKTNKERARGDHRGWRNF
# Sequence of Cyclin-dependent kinase 7 (Homo sapiens) (P50613 whole entry): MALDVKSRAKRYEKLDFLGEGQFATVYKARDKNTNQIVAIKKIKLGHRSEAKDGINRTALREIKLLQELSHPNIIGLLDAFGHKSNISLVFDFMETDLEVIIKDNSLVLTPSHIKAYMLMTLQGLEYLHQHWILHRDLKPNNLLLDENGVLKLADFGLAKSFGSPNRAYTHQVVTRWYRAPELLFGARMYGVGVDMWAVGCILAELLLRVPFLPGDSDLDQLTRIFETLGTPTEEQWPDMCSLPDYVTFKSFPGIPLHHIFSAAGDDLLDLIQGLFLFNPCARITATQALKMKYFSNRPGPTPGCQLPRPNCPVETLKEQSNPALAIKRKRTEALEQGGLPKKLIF
Structure (SMILES),residual activity [1],residual activity [2],residual activity [4],residual activity [6],residual activity [7],residual activity [8],inhibition [9],residual activity [10],residual activity [11],residual activity [12],residual activity [13],residual activity [14],residual activity [15],residual activity [16],residual activity [17],residual activity [18],residual activity [20],residual activity [21],residual activity [22],residual activity [24],also measured
C[C@@H](c1cccc(C#N)c1)n1cc(Cl)cc(C(N)=O)c1=N [(S)-9s],93%,100%,100%,86%,71%,95%,-3.06%,91%,81%,100%,96%,87%,100%,100%,100%,69%,88%,83%,100%,100%,inhibition [3]: 54.8%; Ki [5]: 1.07 µM; Ki [19]: 1.48 µM; Ki [23]: > 1.2 µM (not active); inhibition [25]: -4.49%; residual activity [26]: 100%; residual activity [27]: 82%; Ki [28]: > 2.7 µM (not active); residual activity [29]: 95%; residual activity [30]: 82%; residual activity [31]: 89%
C[C@H](c1cccc(C#N)c1)n1cc(Cl)cc(C(N)=O)c1=N [(R)-9s],92%,100%,100%,100%,86%,98%,1.55%,58%,78%,100%,91%,100%,100%,100%,91%,74%,98%,75%,87%,100%,inhibition [32]: -6%; IC30 [33]: 0.015 µM; inhibition [34]: 10%; inhibition [35]: -5.97%; IC50 [36]: 1.4 µM; residual activity [26]: 100%; residual activity [27]: 76%; inhibition [37]: 0%; inhibition [38]: -5%; residual activity [29]: 85%; residual activity [30]: 80%; inhibition [39]: 4%; residual activity [31]: 80%; inhibition [40]: 0.88%
